Data published in ChEMBL document CHEMBL4152349, “A Fragment-Derived Clinical Candidate for Antagonism of X-Linked and Cellular Inhibitor of Apoptosis Proteins: 1-(6-[(4-Fluorophenyl)methyl]-5-(hydroxymethyl)-3,3-dimethyl-1 H,2 H,3 H-pyrrolo[3,2- b]pyridin-1-yl)-2-[(2 R,5 …” (J Med Chem, 2018).
pIC50: −log10 of the molar value. One block for each molecule: values may come before it. Active and inactive are the calls of the source. The calls are words filed in the database; no cut-off is given here.

Tests used:
MDA-MB-231 [1] = assay: Antitumor activity against human MDA-MB-231 cells xenografted in Balb/c mouse assessed as tumor growth inhibition at 16 mg/kg, po qd after 1 to 22 days; type: functional, organism-based
MDA-MB-231 [2] = assay: Antitumor activity against human MDA-MB-231 cells xenografted in Balb/c mouse assessed as tumor growth inhibition at 20 mg/kg, po qd after 1 to 22 days; type: functional, organism-based
Mus musculus [3] = assay: Reduction in cIAP1 level in tumor of Balb/c SCID mouse xenografted with human MDA-MB-231 cells at 20 mg/kg, po administered as single dose measured up to 72 hrs by MSD plate-based assay; type: functional, organism-based
Mus musculus [4] = assay: In vivo inhibition of XIAP interaction with SMAC in human MDA-MB-231 cells xenografted in Balb/c SCID mouse at 20 mg/kg, po administered as single dose measured up to 72 hrs by MSD plate-based assay; type: functional, organism-based
[5] = Chromatographic hydrophobicity index, log D of the compound at pH 7.4 by HPLC method; type: physicochemical; conditions: buffer
[6] = Oral bioavailability in Balb/c mouse at 10 mg/kg by UHPLC and ESI mass spectrometry; type: ADME, organism-based; conditions: in vivo
in vivo [7] = conditions: cynomolgus monkey, po, 5 mg/kg
[8] = Drug metabolism in Sprague-Dawley rat hepatocytes assessed as 2-((R)-1-amino-3-((R)-3-methylmorpholino)propan-2-ylamino)-1-(6-(4-fluorobenzyl)-3,3-dimethyl-2,3-dihydro-1H-pyrrolo[3,2-b]pyridin-1-yl)ethanone formation at 10 uM up to 90 mins by LC-MS analysis; type: ADME, cell-based, Hepatocyte
[9] = Drug metabolism in Sprague-Dawley rat hepatocytes assessed as 1-(6-(4-fluorobenzyl)-3,3-dimethyl-2,3-dihydro-1H-pyrrolo[3,2-b]pyridin-1-yl)-2-((2S,5R)-2-((2-hydroxyethylamino)methyl)-5-methylpiperazin-1-yl)ethanone formation at 10 uM up to 90 mins by LC-MS analysis; type: ADME, cell-based, Hepatocyte
[10] = Drug metabolism in Sprague-Dawley rat hepatocytes assessed as 2-((2S,5R)-2-(aminomethyl)-5-methylpiperazin-1-yl)-1-(6-(4-fluorobenzyl)-3,3-dimethyl-2,3-dihydro-1H-pyrrolo[3,2-b]pyridin-1-yl)ethanone formation at 10 uM up to 90 mins by LC-MS analysis; type: ADME, cell-based, Hepatocyte
[11] = Drug metabolism in CD-1 mouse hepatocytes assessed as oxidation metabolite formation at 10 uM up to 90 mins by LC-MS analysis; type: ADME, cell-based, Hepatocyte
[12] = Drug metabolism in Sprague-Dawley rat hepatocytes assessed as oxidation metabolite formation at 10 uM up to 90 mins by LC-MS analysis; type: ADME, cell-based, Hepatocyte
[13] = Permeability in human Caco2 cells at 10 uM after 1 hr; type: ADME, cell-based; conditions: Caco-2, read-out: permeability
[14] = Drug metabolism in cynomolgus monkey hepatocytes assessed as oxidation metabolite formation at 10 uM up to 90 mins by LC-MS analysis; type: ADME, cell-based, Macaca fascicularis, Hepatocyte
Cynomolgus monkey [15] = assay: Plasma clearance in cynomolgus monkey at 1 mg/kg, iv or 5 mg/kg, po relative to liver blood flow; type: ADME, organism-based, Macaca fascicularis; conditions: in vivo
[16] = Cmax in Sprague-Dawley rat at 5 mg/kg, po by UHPLC and ESI mass spectrometry; type: ADME, organism-based; set-up: dose 5 mg/kg, route oral; conditions: in vivo
in vivo [17] = conditions: cynomolgus monkey, iv, 1 mg/kg
[18] = Oral bioavailability in Sprague-Dawley rat at 5 mg/kg by UHPLC and ESI mass spectrometry; type: ADME, organism-based; conditions: in vivo
in vivo [19] = conditions: cynomolgus monkey, plasma, iv, 1 mg/kg
[20] = Stability in cynomolgus monkey liver microsomes at 10 uM up to 90 mins in presence of NADPH by LC/MS analysis; type: ADME, Macaca fascicularis, microsome
[21] = Cmax in cynomolgus monkey at 5 mg/kg, po by UHPLC and ESI mass spectrometry; type: ADME, organism-based, Macaca fascicularis; set-up: dose 5 mg/kg, route oral; conditions: in vivo
[22] = Drug metabolism in human hepatocytes assessed as oxidation metabolite formation at 10 uM up to 90 mins by LC-MS analysis; type: ADME, cell-based, Hepatocyte
[23] = Volume of distribution at steady state in Sprague-Dawley rat at 1 mg/kg, iv or 5 mg/kg, po by UHPLC and ESI mass spectrometry; type: ADME, organism-based; conditions: in vivo, read-out: Vdss
[24] = Plasma clearance in Sprague-Dawley rat at 1 mg/kg, iv or 5 mg/kg, po by UHPLC and ESI mass spectrometry; type: ADME, organism-based
in vivo [25] = conditions: cynomolgus monkey, po, 60 mg/kg
[26] = Plasma clearance in Sprague-Dawley rat at 5 mg/kg, iv or 10 mg/kg, po by UHPLC and ESI mass spectrometry; type: ADME, organism-based
[27] = Oral bioavailability in Sprague-Dawley rat at 10 mg/kg by UHPLC and ESI mass spectrometry; type: ADME, organism-based; conditions: in vivo
[28] = Cmax in Balb/c mouse at 10 mg/kg, po by UHPLC and ESI mass spectrometry; type: ADME, organism-based; set-up: dose 10 mg/kg, route oral; conditions: in vivo
[29] = Plasma clearance in Balb/c mouse at 5 mg/kg, iv or 10 mg/kg, po by UHPLC and ESI mass spectrometry; type: ADME, organism-based
Cynomolgus monkey [30] = assay: Cardiotoxicity in cynomolgus monkey assessed as effect on QT interval at 100 mg/kg, po administered as single dose; type: toxicity, organism-based, Macaca fascicularis; conditions: in vivo
[31] = Cmax in Sprague-Dawley rat at 10 mg/kg, po by UHPLC and ESI mass spectrometry; type: ADME, organism-based; set-up: dose 10 mg/kg, route oral; conditions: in vivo
[32] = Volume of distribution at steady state in Balb/c mouse at 5 mg/kg, iv or 10 mg/kg, po by UHPLC and ESI mass spectrometry; type: ADME, organism-based; conditions: in vivo, read-out: Vdss
[33] = Volume of distribution at steady state in Sprague-Dawley rat at 5 mg/kg, iv or 10 mg/kg, po by UHPLC and ESI mass spectrometry; type: ADME, organism-based; conditions: in vivo, read-out: Vdss
[34] = Drug level in tumor of human MDA-MB-231 cells xenografted Balb/c SCID mouse at 20 mg/kg, po administered as single dose measured up to 72 hrs by UPLC analysis; type: ADME, organism-based, Neoplasm; conditions: in vivo
hERG (KCNH2) = hERG (KCNH2) (Homo sapiens, UniProt Q12809); assay: in vitro; conditions: CHO-K1 cells expressing human ERG
CYP3A4 = CYP3A4 (Homo sapiens, UniProt P08684); assay: in vitro; conditions: human CYP3A4 supersomes
MDA-MB-231 [35] = assay: cells; conditions: Homo sapiens, MDA-MB-231, 72 h
[36] = Drug level in cynomolgus monkey hepatocytes treated with 1-(6-(4-fluorobenzyl)-3,3-dimethyl-2,3-dihydro-1H-pyrrolo[3,2-b]pyridin-1-yl)-2-((2R,5R)-5-methyl-2-(((R)-3-methylmorpholino)methyl)piperazin-1-yl)ethanone at 10 uM up to 90 mins by LC-MS analysis; type: ADME, cell-based, Macaca fascicularis, Hepatocyte
[37] = Drug level in CD-1 mouse hepatocytes treated with 1-(6-(4-fluorobenzyl)-3,3-dimethyl-2,3-dihydro-1H-pyrrolo[3,2-b]pyridin-1-yl)-2-((2R,5R)-5-methyl-2-(((R)-3-methylmorpholino)methyl)piperazin-1-yl)ethanone at 10 uM up to 90 mins by LC-MS analysis; type: ADME, cell-based, Hepatocyte
[38] = Drug level in human hepatocytes treated with 1-(6-(4-fluorobenzyl)-3,3-dimethyl-2,3-dihydro-1H-pyrrolo[3,2-b]pyridin-1-yl)-2-((2R,5R)-5-methyl-2-(((R)-3-methylmorpholino)methyl)piperazin-1-yl)ethanone at 10 uM up to 90 mins by LC-MS analysis; type: ADME, cell-based, Hepatocyte

CYP3A4, sequence (P08684 whole entry): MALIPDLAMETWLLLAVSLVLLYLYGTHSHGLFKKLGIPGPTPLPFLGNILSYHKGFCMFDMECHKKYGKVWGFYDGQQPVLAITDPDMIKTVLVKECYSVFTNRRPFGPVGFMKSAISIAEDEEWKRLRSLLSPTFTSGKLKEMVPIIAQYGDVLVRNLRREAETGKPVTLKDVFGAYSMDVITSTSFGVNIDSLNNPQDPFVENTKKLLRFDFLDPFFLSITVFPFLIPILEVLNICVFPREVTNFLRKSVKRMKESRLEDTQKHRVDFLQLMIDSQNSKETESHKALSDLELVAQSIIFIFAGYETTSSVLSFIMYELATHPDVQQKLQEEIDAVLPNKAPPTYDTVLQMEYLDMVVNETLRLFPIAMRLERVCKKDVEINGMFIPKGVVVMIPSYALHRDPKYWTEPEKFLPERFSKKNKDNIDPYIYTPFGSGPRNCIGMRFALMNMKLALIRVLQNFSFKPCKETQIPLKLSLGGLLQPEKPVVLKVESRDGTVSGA
hERG (KCNH2), sequence (Q12809 whole entry): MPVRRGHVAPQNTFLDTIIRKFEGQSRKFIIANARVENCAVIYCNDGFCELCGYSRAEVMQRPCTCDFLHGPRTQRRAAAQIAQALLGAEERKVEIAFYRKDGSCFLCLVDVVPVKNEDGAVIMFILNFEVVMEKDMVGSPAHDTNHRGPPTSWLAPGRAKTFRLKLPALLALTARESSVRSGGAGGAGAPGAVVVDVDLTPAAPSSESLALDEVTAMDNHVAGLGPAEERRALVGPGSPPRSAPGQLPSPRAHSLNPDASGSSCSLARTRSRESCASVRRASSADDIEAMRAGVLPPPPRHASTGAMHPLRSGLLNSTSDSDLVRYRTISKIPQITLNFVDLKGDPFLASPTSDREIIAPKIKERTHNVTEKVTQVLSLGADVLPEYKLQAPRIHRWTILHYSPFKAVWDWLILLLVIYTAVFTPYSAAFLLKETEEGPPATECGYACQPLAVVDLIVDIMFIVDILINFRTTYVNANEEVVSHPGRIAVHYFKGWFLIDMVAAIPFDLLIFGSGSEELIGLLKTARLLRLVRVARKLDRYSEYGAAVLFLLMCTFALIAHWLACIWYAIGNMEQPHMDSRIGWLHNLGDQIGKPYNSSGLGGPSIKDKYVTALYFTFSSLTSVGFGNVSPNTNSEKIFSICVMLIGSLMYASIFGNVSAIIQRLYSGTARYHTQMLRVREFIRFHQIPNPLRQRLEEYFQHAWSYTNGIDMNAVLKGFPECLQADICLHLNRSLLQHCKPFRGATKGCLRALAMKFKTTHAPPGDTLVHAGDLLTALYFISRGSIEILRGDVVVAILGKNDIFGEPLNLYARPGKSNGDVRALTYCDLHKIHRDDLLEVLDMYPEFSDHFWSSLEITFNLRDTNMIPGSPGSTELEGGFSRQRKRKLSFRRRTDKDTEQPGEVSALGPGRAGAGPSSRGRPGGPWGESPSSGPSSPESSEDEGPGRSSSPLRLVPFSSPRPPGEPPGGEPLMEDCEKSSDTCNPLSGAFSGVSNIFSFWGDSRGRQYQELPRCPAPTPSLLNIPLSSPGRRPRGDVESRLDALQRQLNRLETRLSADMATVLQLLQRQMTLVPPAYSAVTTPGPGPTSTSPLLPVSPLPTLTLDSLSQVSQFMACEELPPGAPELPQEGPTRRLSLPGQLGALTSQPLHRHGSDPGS

SMILES: C[C@@H]1CN(CC(=O)N2CC(C)(C)c3nc(CO)c(Cc4ccc(F)cc4)cc32)[C@@H](CN2CCOC[C@H]2C)CN1
- TGI (MDA-MB-231 [1]): Active
- TGI (MDA-MB-231 [2]): Active
- Activity (Mus musculus [3]): Active
- Activity (Mus musculus [4]): Active

SMILES: C[C@@H]1CN(CC(=O)N2CC(C)(C)c3ncc([C@@H](O)c4ccc(F)cc4)cc32)[C@@H](CN2[C@H](C)COC[C@H]2C)CN1
- chromatographic logD [5]: 2.9
- bioavailability [6]: 31%
- bioavailability (in vivo [7]): 13%

SMILES: C[C@@H]1CN(CC(=O)N2CC(C)(C)c3nc(CO)c(Cc4ccc(F)cc4)cc32)[C@@H](CN2CCOC[C@H]2C)CN1.Cl.Cl
- Drug uptake [34]: Active

SMILES: C[C@@H]1CN(CC(=O)N2CC(C)(C)c3ncc([C@H](O)c4ccc(F)cc4)cc32)[C@@H](CN2[C@H](C)COC[C@H]2C)CN1
- bioavailability [6]: 31%
- bioavailability (in vivo [7]): 13%

SMILES: C[C@@H]1CN(CC(=O)N2CC(C)(C)c3ncc(Cc4ccc(F)cc4)cc32)[C@@H](CNCCO)CN1
- Drug uptake [36]: Active
- Drug uptake [37]: Active
- Drug uptake [38]: Active

SMILES: C[C@@H]1COCCN1C[C@@H](CN)NCC(=O)N1CC(C)(C)c2ncc(Cc3ccc(F)cc3)cc21
- Drug uptake [36]: Active
- Drug uptake [37]: Active
- Drug uptake [38]: Active

More lines, main results first:

- Drug metabolism [8]: Metabolite_Notdetected
- Drug metabolism [9]: Metabolite_Notdetected
- Drug metabolism [10]: Metabolite_Notdetected
- Drug metabolism [11]: Metabolite_Detected
- Drug metabolism [12]: Metabolite_Notdetected
- Papp at 1 h, 10 µM [13]: 1.1 ×10⁻⁶ cm/s
- Drug metabolism [14]: Metabolite_Detected
- CL (Cynomolgus monkey [15]): < 50%
- Cmax [16]: 47 ng/mL
- Vd (in vivo [17]): 3.7 L/kg
- bioavailability [18]: 24%
- bioavailability (in vivo [7]): 2%
- clearance (in vivo [19]): 17 mL/min/kg
- Stability [20]: Stable
- Cmax [21]: 22 ng/mL
- Drug metabolism [22]: Metabolite_Detected
- Vd [23]: 12 L/kg
- clearance [24]: 26 mL/min/kg
SMILES: C[C@@H]1CN(CC(=O)N2CC(C)(C)c3ncc(Cc4ccc(F)cc4)cc32)[C@@H](CN2CCOC[C@H]2C)CN1

- bioavailability (in vivo [25]): 50%
- clearance [26]: 38 mL/min/kg
- chromatographic logD [5]: 3.1
- bioavailability [27]: 29%
- Cmax [28]: 433 ng/mL
- clearance [29]: 41 mL/min/kg
- bioavailability [6]: 34%
- Vd (in vivo [17]): 6 L/kg
- Cmax [31]: 117 ng/mL
- bioavailability (in vivo [7]): 12%
- clearance (in vivo [19]): 16 mL/min/kg
- Vd [32]: 2.7 L/kg
- Vd [33]: 9.3 L/kg
- Cmax [21]: 137 ng/mL
SMILES: C[C@@H]1CN(CC(=O)N2CC(C)(C)c3nc(CO)c(Cc4ccc(F)cc4)cc32)[C@@H](CN2CCOC[C@H]2C)CN1 [ASTX-660]
- Activity (Cynomolgus monkey [30]): Non-Toxic

- chromatographic logD [5]: 2.9
- half-life at 40 min, 1 µM (CYP3A4): 34 min
- pIC50 (MDA-MB-231 [35]): 7.85
SMILES: C[C@@H]1CN(CC(=O)N2CC(C)(C)c3nnc(Cc4ccc(F)cc4F)cc32)[C@@H](CN2Cc3ccc(C#N)cc3C2=O)CN1
- inhibition at 10 min, 30 µM (hERG (KCNH2)): 18%

- chromatographic logD [5]: 3
- half-life at 40 min, 1 µM (CYP3A4): 42 min
- pIC50 (MDA-MB-231 [35]): 8.28
SMILES: C[C@@H]1CN(CC(=O)N2CC(C)(C)c3nnc(Cc4ccc(F)cc4F)cc32)[C@@H](CN2Cc3cc(C#N)ccc3C2=O)CN1
- inhibition at 10 min, 30 µM (hERG (KCNH2)): 19%
